Experimental data taken from patent US12690591B2, “Fungicidal composition containing oxadiazole compounds” (PI INDUSTRIES LIMITED, priority 2021, dated 2026).
Like-named read-outs stand apart in the source and are kept apart here.

Columns and labels:
Phakopsora pachyrhizi = Phakopsora pachyrhizi test (soybean), preventive glasshouse spray test; assay type: in vivo; settings: for pest or weed control at 0.0001 ppm / pest or weed control at 0.001 ppm / pest or weed control at 0.01 ppm / pest or weed control at 0.05 ppm / pest or weed control at 0.1 ppm: Phakopsora pachyrhizi, read-out: Observed Efficacy (%)
Pyricularia oryzae = test: whole plant or invertebrate; assay type: in vivo; settings: for Observed Efficacy (%): preventive spray on rice plants
Septoria nodorum = test: Parastagonospora nodorum/Septoria nodorum/Stagnospora nodorum test (wheat), preventive glasshouse spray test; assay type: in vivo; settings: preventive spray on wheat plants
Botrytis cinerea = Botrytis cinerea test (tomato), preventive glasshouse spray test; assay type: in vivo
Alternaria solani = Alternaria solani test (tomato plants), preventive glasshouse spray test; settings: for pest or weed control at 1 ppm / pest or weed control at 5 ppm / pest or weed control at 10 ppm: Alternaria solani, in Solanum lycopersicum, read-out: Observed Efficacy (%)
Erysiphe cichoracearum = Erysiphe cichoracearum test (cucumber), preventive glasshouse spray test; settings: preventive spray on cucumber plants
[1] = tested on: Pseudoperonospora cubensis; test: Pseudoperonospora cubensis test (cucumber), preventive glasshouse spray test; assay type: in vivo
Source text: The test solutions were poured into the spray bottles for further applications.

Phytopthora infestans = assay type: in vivo; settings: single compound, tomato, preventive spray
Corynespora cassiicola = Corynespora cassiicola test (tomato), preventive glasshouse spray test; assay type: in vivo; settings: single compound
[2] = Table D3, single compound, 0.05 ppm, soybean, preventive spray
[3] = Table D3, single compound, 0.1 ppm, soybean, preventive spray
[4] = Pyricularia oryzae, read-out: Observed Efficacy (%)
[5] = Table G1, single compound, 0.05 ppm
[6] = Table D1, single compound, 0.05 ppm, soybean, preventive spray
[7] = Table G1, single compound, 0.1 ppm
[8] = single compound, Conc. 0.05 ppm

Compound: CC(O)(Cn1cncn1)c1ccc(Oc2ccc(Cl)cc2)cc1C(F)(F)F (centres unmarked) [Mefentrifluconazole, mefentrifluconazole]
- Observed Efficacy (%) (Phakopsora pachyrhizi; [2]): 32%
- Observed Efficacy (%) (Phakopsora pachyrhizi; [3]): 44%

Compound: O=C(COc1ccc(F)cc1)c1ccc(-c2noc(C(F)(F)F)n2)cc1 [Compound (I-2), 2-(4-fluorophenoxy)-1-(4-(5-(trifluoromethyl)-1,2,4-oxadiazol-3-yl)phenyl)ethan-1-one]
- pest or weed control at 1 ppm (Pyricularia oryzae; [4]): 17%
- pest or weed control at 10 ppm (Pyricularia oryzae; [4]): 37%
- pest or weed control at 0.0001 ppm (Phakopsora pachyrhizi; Table D1, single compound, 0.0001 ppm, soybean, preventive spray): 40%
- pest or weed control at 0.001 ppm (Phakopsora pachyrhizi; Table D1, single compound, 0.001 ppm, soybean, preventive spray): 50%
- pest or weed control at 0.01 ppm (Phakopsora pachyrhizi; Table D1, single compound, soybean, preventive spray): 62%
- Observed Efficacy (%) (Septoria nodorum; single compound at 1 ppm): 17%
- Observed Efficacy (%) (Septoria nodorum; single compound at 5 ppm): 20%
- Observed Efficacy (%) (Septoria nodorum; single compound at 10 ppm): 43%
- Observed Efficacy (%) (Botrytis cinerea; Table F1, single compound, 1 ppm, tomato, preventive spray): 20%
- Observed Efficacy (%) (Botrytis cinerea; Table F1, single compound, 5 ppm, tomato, preventive spray): 27%
- Observed Efficacy (%) (Botrytis cinerea; Table F1, single compound, 10 ppm, tomato, preventive spray): 47%
- pest or weed control at 1 ppm (Alternaria solani): 34%
- pest or weed control at 5 ppm (Alternaria solani): 42%
- pest or weed control at 10 ppm (Alternaria solani): 47%
- Observed Efficacy (%) (Erysiphe cichoracearum; single compound at 1 ppm): 13%

Compound: CC1CC(C)(C)c2c(F)ccc(NC(=O)c3cn(C)nc3C(F)F)c21 (centres unmarked) [Fluindapyr, fluindapyr, reference compound]
- Observed Efficacy (%) (Pyricularia oryzae; single compound at 0.05 ppm): 11%
- Observed Efficacy (%) [1, 5]: 35%

Compound: metiram [reference compound]
- Observed Efficacy (%) (Pyricularia oryzae; single compound at 0.1 ppm): 18%

Compound: O=C(Nc1ccccc1-c1ccc(Cl)cc1)c1cccnc1Cl [Boscalid, boscalid, reference compound]
- pest or weed control at 0.05 ppm (Phakopsora pachyrhizi; [6]): 27%
- Observed Efficacy (%) (Phytopthora infestans; Conc. 0.1 ppm): 11%

Compound: N#Cc1sc2c(=O)c3ccccc3c(=O)c=2sc1C#N [Dithianon, dithianon]
- Observed Efficacy (%) (Septoria nodorum; single compound at 0.1 ppm): 16%

Compound: O=C(NCCc1ncc(C(F)(F)F)cc1Cl)c1ccccc1C(F)(F)F [Fluopyram, fluopyram]
- Observed Efficacy (%) (Septoria nodorum; single compound at 0.05 ppm): 8%
- Observed Efficacy (%) (Septoria nodorum; single compound at 0.1 ppm): 21%
- Observed Efficacy (%) [1, 5]: 2%
- Observed Efficacy (%) [1, 7]: 12%
- Observed Efficacy (%) [1, 8]: 2%
- Observed Efficacy (%) ([1]; single compound, Conc. 0.1 ppm): 12%

Compound: O=C1c2ccccc2C(=O)N1SC(Cl)(Cl)Cl [Folpet, folpet, reference compound]
- Observed Efficacy (%) (Botrytis cinerea; Table F1, single compound, 0.1 ppm, tomato, preventive spray): 38%
- Observed Efficacy (%) (Phytopthora infestans; Conc. 0.1 ppm): 11%

Compound: O=C(COc1ccc(F)nc1)c1ccc(-c2noc(C(F)(F)F)n2)cc1 [Compound (I-3), 2-((6-fluoropyridin-3-yl)oxy)-1-(4-(5-(trifluoromethyl)-1,2,4-oxadiazol-3-yl)phenyl)ethan-1-one]
- pest or weed control at 10 ppm (Pyricularia oryzae; [4]): 42%
- pest or weed control at 0.0001 ppm (Phakopsora pachyrhizi; single compound at 0.0001 ppm, preventive spray on soybean plants): 43%
- pest or weed control at 0.001 ppm (Phakopsora pachyrhizi; single compound at 0.001 ppm, preventive spray on soybean plants): 50%
- Observed Efficacy (%) (Botrytis cinerea; single compound at 10 ppm, preventive spray on tomato plants): 20%
- Observed Efficacy (%) [1, 7]: 36%
- Observed Efficacy (%) ([1]; Table G1, single compound, 1 ppm): 32%
- Observed Efficacy (%) ([1]; Table G1, single compound, 10 ppm): 34%
- Observed Efficacy (%) (Corynespora cassiicola; Conc. 5 ppm): 36%
- Observed Efficacy (%) (Corynespora cassiicola; Conc. 10 ppm): 45%
- pest or weed control at 1 ppm (Alternaria solani): 35%
- pest or weed control at 5 ppm (Alternaria solani): 40%
- pest or weed control at 10 ppm (Alternaria solani): 47%
- Observed Efficacy (%) (Erysiphe cichoracearum; single compound at 1 ppm): 35%
- Observed Efficacy (%) (Erysiphe cichoracearum; single compound at 5 ppm): 37%
- Observed Efficacy (%) (Erysiphe cichoracearum; single compound at 10 ppm): 39%

Compound: Cn1cc(C(=O)Nc2cccc3c2[C@@H]2CC[C@H]3C2=C(Cl)Cl)c(C(F)F)n1 (racemic) [Benzovindiflupyr, benzovindiflupyr]
- Observed Efficacy (%) (Corynespora cassiicola; Conc. 0.05 ppm): 18%

Compound: CC1CC(C)(C)c2c(F)ccc(NC(=O)c3cn(C)nc3C(F)F)c21 (centres unmarked) [Inpyrfluxam, inpyrfluxam]
- Observed Efficacy (%) (Phakopsora pachyrhizi; [6]): 18%
- Observed Efficacy (%) (Septoria nodorum; single compound at 0.05 ppm): 12%
- Observed Efficacy (%) (Corynespora cassiicola; Conc. 0.05 ppm): 16%
- Observed Efficacy (%) (Alternaria solani; single compound at 0.1 ppm, preventive spray on tomato plants): 23%

Compound: OC(Cc1ccccc1Cl)(Cn1nc[nH]c1=S)C1(Cl)CC1 (centres unmarked) [Prothioconazole, prothioconazole]
- pest or weed control at 0.1 ppm (Phakopsora pachyrhizi; Table D1, single compound, 0.1 ppm, soybean, preventive spray): 48%
- Observed Efficacy (%) (Phakopsora pachyrhizi; [3]): 48%
- Observed Efficacy (%) ([1]; single compound, Conc. 0.1 ppm): 45%

Compound: O=C(CNc1ccc(F)cc1)c1ccc(-c2noc(C(F)(F)F)n2)cc1 [Compound (I-8), 2-((4-fluorophenyl)amino)-1-(4-(5-(trifluoromethyl)-1,2,4-oxadiazol-3-yl)phenyl)ethan-1-one]
- pest or weed control at 1 ppm (Pyricularia oryzae; [4]): 17%
- pest or weed control at 5 ppm (Pyricularia oryzae; [4]): 22%
- pest or weed control at 10 ppm (Pyricularia oryzae; [4]): 31%
- pest or weed control at 0.0001 ppm (Phakopsora pachyrhizi; Table D3, single compound, 0.0001 ppm, soybean, preventive spray): 37%
- pest or weed control at 0.001 ppm (Phakopsora pachyrhizi; Table D3, single compound, 0.001 ppm, soybean, preventive spray): 47%
- pest or weed control at 0.01 ppm (Phakopsora pachyrhizi; Table D3, single compound, soybean, preventive spray): 60%
- Observed Efficacy (%) ([1]; single compound, Conc. 1 ppm): 17%
- Observed Efficacy (%) ([1]; single compound, Conc. 5 ppm): 19%
- Observed Efficacy (%) ([1]; single compound, Conc. 10 ppm): 28%
- Observed Efficacy (%) (Phytopthora infestans; Conc. 1 ppm): 32%
- Observed Efficacy (%) (Phytopthora infestans; Conc. 5 ppm): 42%
- pest or weed control at 1 ppm (Alternaria solani): 26%
- pest or weed control at 5 ppm (Alternaria solani): 37%
- pest or weed control at 10 ppm (Alternaria solani): 47%
- Observed Efficacy (%) (Erysiphe cichoracearum; single compound at 1 ppm): 19%
- Observed Efficacy (%) (Erysiphe cichoracearum; single compound at 5 ppm): 25%
- Observed Efficacy (%) (Erysiphe cichoracearum; single compound at 10 ppm): 31%

Compound: CO/C=C(/C(=O)OC)c1ccccc1Oc1cc(Oc2ccccc2C#N)ncn1 [Azoxystrobin, azoxystrobin, reference compound]
- Observed Efficacy (%) (Pyricularia oryzae; single compound at 0.1 ppm): 26%

Compound: COC(=O)N(OC)c1ccccc1COc1ccn(-c2ccc(Cl)cc2)n1 [Pyraclostrobin, pyraclostrobin]
- pest or weed control at 0.05 ppm (Phakopsora pachyrhizi; [2]): 37%
- pest or weed control at 0.1 ppm (Phakopsora pachyrhizi; [3]): 46%

Compound: O=[N+]([O-])c1cc(C(F)(F)F)c(Cl)c([N+](=O)[O-])c1Nc1ncc(C(F)(F)F)cc1Cl [Fluazinam, fluazinam]
- Observed Efficacy (%) (Septoria nodorum; single compound at 0.1 ppm): 21%
- Observed Efficacy (%) (Corynespora cassiicola; Conc. 0.1 ppm): 12%

Compound: CNC(=O)/C(=N/OC)c1ccccc1Oc1ccccc1 [Metominostrobin, metominostrobin]
- Observed Efficacy (%) (Septoria nodorum; single compound at 0.05 ppm): 6%
- Observed Efficacy (%) (Septoria nodorum; single compound at 0.1 ppm): 12%

Compound: mancozeb
- Observed Efficacy (%) [1, 5]: 2%
- Observed Efficacy (%) [1, 7]: 5%
- Observed Efficacy (%) [1, 8]: 2%
- Observed Efficacy (%) ([1]; single compound, Conc. 0.1 ppm): 5%
- Observed Efficacy (%) (Corynespora cassiicola; Conc. 0.05 ppm): 10%
